BindingDB's records for doi:10.1016/j.bmcl.2021.128263 (A*Star, 2021)

Target: Replicase polyprotein 1ab (Severe acute respiratory syndrome coronavirus, UniProt P0C6X7)
Assay: Literature assay

Compound	Ki [nM]	IC50 [nM]
CC(OC(C)(C)C)[C@H](NC(=O)OCc1ccccc1)C(=O)N[C@@H](CC1CCCCC1)C(=O)N[C@H](C=O)CC1CCNC1=O (some centres undefined) [TG-0205221]	53	–
CC(C)C[C@H](NC(=O)[C@@H](NC(=O)OCc1ccccc1)C(C)C)C(=O)N[C@@H](C[C@@H]1CCNC1=O)C(=O)C(=O)N(C)C [peptidomimetic coronavirus 3CLpro inhibitors 17]	–	7
CC(C)C[C@H](NC(=O)OCc1ccccc1)C(=O)N[C@@H](C[C@@H]1CCNC1=O)C(=O)c1nc2ccccc2s1 [peptidomimetic coronavirus 3CLpro inhibitors 25c]	–	210000
CC(C)C[C@H](NC(=O)[C@@H](NC(=O)OCc1ccccc1)C(C)C)C(=O)N[C@@H](C[C@@H]1CCNC1=O)C(=O)c1nc2ccccc2s1 [peptidomimetic coronavirus 3CLpro inhibitors 2i]	–	1700
